Measurements taken from patent US20120214802A1, “PYRROLIDINE COMPOUNDS WHICH INHIBIT BETA-SECRETASE ACTIVITY AND METHODS OF USE THEREOF” (priority 2009, published 2012).

What was measured:
memapsin 2 [1] = target: memapsin 2 (Homo sapiens, UniProt P56817); assay: Inhibition of memapsin 2 beta-secretase activity (fluorogenic substrate FS-2); type: biochemical; conditions: pH 4, 37° C., read-out: M2 Ki
Summary of the method: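 Memapsin 2 pre-incubated with compound for 20 min at pH 4, 37° C. Reaction started with fluorogenic substrate FS-2, […], derived from Swedish-variant APP beta-secretase site; inhibition measured from fluorescence.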

memapsin 2 [2] = target: T1, memapsin 2 (Cricetulus griseus, UniProt G3IAK4); assay: Cellular Aβ IC50 determination (Aβ40 sandwich ELISA); type: cell-based, Chinese hamster; conditions: CHO cells over-expressing human APP695 with London and Swedish mutations, 24 h, read-out: M2 IC50
T1 construct: endogenous in cells; host or cells: Chinese hamster ovary cells over-expressing human APP695 (London + Swedish)
Protocol: The potency of compounds against memapsin 2 activity was determined in a cellular assay of Aβ production. […] Chinese hamster ovary cells that over-express human APP695 with the London and Swedish mutations were seeded in multi-well plates at 10% confluency. Compounds are dissolved in DMSO to concentrations near 1 mM, and diluted into culture media to a final concentration near 4 μM (final 0.4% DMSO). Compounds were diluted serially and applied to cells in multi-well plates 48 h after seeding. Incubation was continued in 5% CO2 at 37° C. for 24 h. Aliquots were removed and assayed for […] using a sandwich ELISA (BioSource International). Amount of Aβ40 over the range of concentration of compounds, relative to control incubations, were fit to a 4-parameter IC50 model.

CYP3A4 = target: T2, CYP3A4 (Homo sapiens, UniProt P08684); assay: CYP3A4 inhibition (midazolam metabolism in human liver microsomes); type: in vitro ADME; conditions: substrate midazolam, read-out: CYP 3A4Ki
T2 construct: host or cells: human liver microsomes
Protocol: To evaluate the drug-drug interaction potential for compounds, the potency to inhibit the major metabolic cytochrome CYP450 isoform 3A4 was assessed. The inhibition constant Ki was determined for inhibition of the metabolism of midazolam, a CYP3A4 substrate.
CYP3A4 Ki assays were performed following a recently published protocol with slight modifications (Di, L., Kerns, E. H., Li, S. Q., and Carter, G. T. (2007) Comparison of cytochrome P450 inhibition assays for drug discovery using human liver microsomes with LC-MS, rhCYP450 isozymes with fluorescence, and double cocktail with LC-MS. International Journal of Pharmaceutics 335: 1-11). The P450 inhibition assay was performed in 96-well plates at 37.2° C. in a shaking incubator. The compounds were diluted from 5 mM stocks in 100% DMSO and incubated at seven final concentrations from 0.078 to 10 μM (0.1% DMSO in each final incubation), with human liver microsomes (HLM) at a final protein concentration of 0.1 mg/mL protein and a substrate concentration ranging from 1.25 to 10 μM.
The assay was standardized for both phosphate buffer (100 mM, pH 7.4) and the NADPH regenerating system (MgCl2, 3.3 mM; G6P, 3.3 mM; G6PD, 1 U/ml; NADP+, 1.3 mM). Eight replicate control samples (0.1% DMSO, no compound) were prepared. Assays (200 μL) were set up by mixing HLM+substrate stock, 10 μL of test article in 2% DMSO, and the substrate before initiating the reaction with the addition of the regenerating system mixture. Reactions were quenched following incubation for 20, 30 and 40 minutes as described following.
After incubation for the specified time in a humidified shaking incubator, 20 μL of the reaction mixture was removed and the reactions were terminated by adding 200 μL of cold acetonitrile. Samples were centrifuged at 1000×g for 15 minutes in Solvinert filter plate. The receptor plate was dried via speed vacuum at 40° C. The sample was reconstituted with a reconstitution buffer composed of 10% acetonitrile, 10% DMSO, 80% H2O with an internal standard added at a concentration of 100 ng/ml. MS-Analysis was completed using LC-MS/MS. Formation of 1′-hydroxymidazolam was measured by monitoring a specific SRM (342>203) transition for the CYP3A4 metabolite.
Data were expressed as the relative quantity of midazolam metabolite relative to control incubations. Initial velocities were obtained by multiplying the relative quantity by the initial substrate concentration and dividing by the incubation duration. Data were transformed to inverse of inivital velocity and expressed vs. inhibitor concentration [I] for determination of Ki by the Dixon method (Dixon, M. (1953) Biochemical Journal 55: 170-171) using where intercept [I]=−Ki was determined at multiple substrate concentrations.

T2 sequence (P08684 whole entry): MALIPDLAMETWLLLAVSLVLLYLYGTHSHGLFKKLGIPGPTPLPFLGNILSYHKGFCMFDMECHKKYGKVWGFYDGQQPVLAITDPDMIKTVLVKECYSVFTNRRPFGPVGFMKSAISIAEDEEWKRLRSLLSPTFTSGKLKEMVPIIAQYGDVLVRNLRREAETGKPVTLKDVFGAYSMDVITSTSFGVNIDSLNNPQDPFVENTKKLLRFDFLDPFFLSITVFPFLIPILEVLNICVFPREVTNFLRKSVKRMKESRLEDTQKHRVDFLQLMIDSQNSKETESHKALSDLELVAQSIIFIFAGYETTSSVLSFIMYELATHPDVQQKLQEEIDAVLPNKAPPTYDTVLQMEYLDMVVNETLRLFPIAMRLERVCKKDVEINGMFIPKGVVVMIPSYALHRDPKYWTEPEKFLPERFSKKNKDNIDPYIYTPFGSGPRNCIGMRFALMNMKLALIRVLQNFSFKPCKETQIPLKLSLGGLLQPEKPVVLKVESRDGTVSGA
T1 sequence (G3IAK4 22-501): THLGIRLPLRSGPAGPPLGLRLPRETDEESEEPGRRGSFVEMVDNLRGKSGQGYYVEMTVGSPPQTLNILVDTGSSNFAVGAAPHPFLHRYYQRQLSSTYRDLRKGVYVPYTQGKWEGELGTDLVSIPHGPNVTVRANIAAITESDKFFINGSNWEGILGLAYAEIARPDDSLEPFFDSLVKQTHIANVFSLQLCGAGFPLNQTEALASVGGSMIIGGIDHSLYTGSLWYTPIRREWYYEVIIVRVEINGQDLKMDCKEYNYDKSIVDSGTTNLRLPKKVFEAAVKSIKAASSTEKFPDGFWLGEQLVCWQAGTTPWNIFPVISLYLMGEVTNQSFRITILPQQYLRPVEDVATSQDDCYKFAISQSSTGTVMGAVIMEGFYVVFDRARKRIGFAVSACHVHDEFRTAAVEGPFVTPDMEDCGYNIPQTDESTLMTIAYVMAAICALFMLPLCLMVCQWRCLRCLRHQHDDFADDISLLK
Sequence of memapsin 2 (Homo sapiens, UniProt P56817) (P56817 46-501): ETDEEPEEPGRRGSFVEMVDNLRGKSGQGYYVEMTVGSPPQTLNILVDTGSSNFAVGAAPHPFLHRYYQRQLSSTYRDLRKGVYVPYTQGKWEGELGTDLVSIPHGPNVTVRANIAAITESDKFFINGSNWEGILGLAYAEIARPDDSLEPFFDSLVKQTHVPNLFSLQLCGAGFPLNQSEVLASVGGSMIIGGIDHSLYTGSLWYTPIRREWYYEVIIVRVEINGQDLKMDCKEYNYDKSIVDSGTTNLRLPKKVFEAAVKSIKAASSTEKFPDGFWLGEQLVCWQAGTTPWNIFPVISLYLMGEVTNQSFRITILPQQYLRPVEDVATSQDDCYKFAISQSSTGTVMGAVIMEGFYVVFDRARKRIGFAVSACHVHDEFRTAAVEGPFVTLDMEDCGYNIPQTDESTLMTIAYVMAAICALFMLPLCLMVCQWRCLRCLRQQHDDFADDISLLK

SMILES | Ki (memapsin 2 [1]) | IC50 (memapsin 2 [2]) | Ki (CYP3A4)
Cc1csc([C@H]2CCCN2C(=O)c2cc(C(=O)N[C@@H](Cc3ccccc3)[C@H](O)[C@H]3CCCN3)cc(N3CCOCC3)c2)n1 [1-33, N-((1R,2S)-1-hydroxy-3-phenyl-1-((R)-pyrrolidin-2-yl)propan-2-yl)-3-((R)-2-(4-methylthiazol-2-yl)pyrrolidine-1-carbonyl)-5-morpholinobenzamide] | > 0.75 µM | > 1 µM | 5 to 10 µM
Cc1csc([C@H]2CCCN2C(=O)c2cc(C(=O)N[C@@H](Cc3ccccc3)[C@H](O)[C@H]3CCCN3)cc(N3CCC(F)(F)CC3)c2)n1 [1-46, 3-(4,4-difluoropiperidin-1-yl)-N-((1R,2S)-1-hydroxy-3-phenyl-1-((R)-pyrrolidin-2-yl)propan-2-yl)-5-((R)-2-(4-methylthiazol-2-yl)pyrrolidine-1-carbonyl)benzamide] | 0.25 to 0.75 µM | 0.5 to 1 µM | –
Cc1csc([C@H]2CCCN2C(=O)c2cccc(C(=O)N[C@@H](Cc3ccccc3)[C@H](O)[C@H]3C[C@H](F)CN3)c2)n1 [1-47, N-((1R,2S)-1-((2R,4S)-4-fluoropyrrolidin-2-yl)-1-hydroxy-3-phenylpropan-2-yl)-3-((R)-2-(4-methylthiazol-2-yl)pyrrolidine-1-carbonyl)benzamide] | 0.25 to 0.75 µM | > 1 µM | –
Cc1csc([C@H]2CCCN2C(=O)c2cccc(C(=O)N[C@@H](Cc3ccccc3)[C@H](O)[C@@H]3CCCN3)c2)n1 [1-48, N-((1R,2S)-1-hydroxy-3-phenyl-1-((S)-pyrrolidin-2-yl)propan-2-yl)-3-((R)-2-(4-methylthiazol-2-yl)pyrrolidine-1-carbonyl)benzamide] | > 0.75 µM | > 1 µM | –
Cc1csc([C@H]2CCCN2C(=O)c2cccc(C(=O)N[C@@H](Cc3ccccc3)[C@H](O)[C@H]3CC[C@@H](C)N3)c2)n1 [1-51, N-((1R,2S)-1-hydroxy-1-((2R,5R)-5-methylpyrrolidin-2-yl)-3-phenylpropan-2-yl)-3-((R)-2-(4-methylthiazol-2-yl)pyrrolidine-1-carbonyl)benzamide] | > 0.75 µM | > 1 µM | –
Cc1csc([C@H]2CCCN2C(=O)c2cccc(C(=O)N[C@@H](Cc3cccc(F)c3)[C@H](O)[C@H]3CCCN3)c2)n1 [1-53, N-((1R,2S)-3-(3-fluorophenyl)-1-hydroxy-1-((R)-pyrrolidin-2-yl)propan-2-yl)-3-((R)-2-(4-methylthiazol-2-yl)pyrrolidine-1-carbonyl)benzamide] | < 0.25 µM | 0.5 to 1 µM | –
Cc1cc(C(=O)N[C@@H](Cc2ccccc2)[C@H](O)CNCc2cncc(C(C)C)c2)cc(C(=O)N2CCC[C@@H]2c2nc(C)cs2)c1 [2-8, N-((2S,3R)-3-hydroxy-4-((5-isopropylpyridin-3-yl)methylamino)-1-phenylbutan-2-yl)-3-methyl-5-((R)-2-(4-methylthiazol-2-yl)pyrrolidine-1-carbonyl)benzamide, reference compound] | < 0.25 µM | < 0.5 µM | < 1 µM
Cc1csc(CN(C(=O)c2cccc(C(=O)N[C@@H](Cc3ccccc3)[C@H](O)CNCc3cccc(C(F)(F)F)c3)c2)C2CC2)n1 [2-9, N1-cyclopropyl-N3-((2S,3R)-3-hydroxy-1-phenyl-4-(3-(trifluoromethyl)benzylamino)butan-2-yl)-N1-((4-methylthiazol-2-yl)methyl)isophthalamide, reference compound] | < 0.25 µM | < 0.5 µM | < 1 µM
Cc1csc([C@H]2CCCN2C(=O)c2cccc(C(=O)N[C@@H](Cc3ccccc3)[C@H](O)CNCc3cccc(C(C)(C)C)c3)c2)n1 [2-10, N-((2S,3R)-4-(3-tert-butylbenzylamino)-3-hydroxy-1-phenylbutan-2-yl)-3-((R)-2-(4-methylthiazol-2-yl)pyrrolidine-1-carbonyl)benzamide, reference compound] | < 0.25 µM | < 0.5 µM | < 1 µM
Cc1cc(C(=O)N[C@@H](Cc2ccccc2)[C@H](O)CNCc2cncc(C(C)(C)C)c2)cc(C(=O)N2CCC[C@@H]2c2nc(C)co2)c1 [2-11, N-((2S,3R)-4-((5-tert-butylpyridin-3-yl)methylamino)-3-hydroxy-1-phenylbutan-2-yl)-3-methyl-5-((R)-2-(4-methyloxazol-2-yl)pyrrolidine-1-carbonyl)benzamide, reference compound] | < 0.25 µM | < 0.5 µM | < 1 µM

Second part, the molecule after the results:

Ki (memapsin 2 [1]) | IC50 (memapsin 2 [2]) | Ki (CYP3A4) | SMILES
< 0.25 µM | < 0.5 µM | > 10 µM | Cc1csc([C@H]2CCCN2C(=O)c2cc(C(=O)N[C@@H](Cc3ccccc3)[C@H](O)[C@H]3CCCN3)cc(-c3cnccn3)c2)n1 [1-20, N-((1R,2S)-1-hydroxy-3-phenyl-1-((R)-pyrrolidin-2-yl)propan-2-yl)-3-((R)-2-(4-methylthiazol-2-yl)pyrrolidine-1-carbonyl)-5-(pyrazin-2-yl)benzamide]
< 0.25 µM | – | 5 to 10 µM | Cc1coc([C@H]2CCCN2C(=O)c2cc(C(=O)N[C@@H](Cc3ccccc3)[C@H](O)[C@H]3CCCN3)cc(-n3cccc3)c2)n1 [1-26, N-((1R,2S)-1-hydroxy-3-phenyl-1-((R)-pyrrolidin-2-yl)propan-2-yl)-3-((R)-2-(4-methyloxazol-2-yl)pyrrolidine-1-carbonyl)-5-(1H-pyrrol-1-yl)benzamide]
< 0.25 µM | – | > 10 µM | Cc1coc([C@H]2CCCN2C(=O)c2cc(C(=O)N[C@@H](Cc3ccccc3)[C@H](O)[C@H]3CCCN3)cc(N(C)S(C)(=O)=O)c2)n1 [1-28, N-((1R,2S)-1-hydroxy-3-phenyl-1-((R)-pyrrolidin-2-yl)propan-2-yl)-3-(N-methylmethylsulfonamido)-5-((R)-2-(4-methyloxazol-2-yl)pyrrolidine-1-carbonyl)benzamide]
< 0.25 µM | > 1 µM | 5 to 10 µM | COc1cc(C(=O)N[C@@H](Cc2ccccc2)[C@H](O)[C@H]2CCCN2)cc(C(=O)N2CCC[C@@H]2c2nc(C)cs2)c1 [1-34, N-((1R,2S)-1-hydroxy-3-phenyl-1-((R)-pyrrolidin-2-yl)propan-2-yl)-3-methoxy-5-((R)-2-(4-methylthiazol-2-yl)pyrrolidine-1-carbonyl)benzamide]
< 0.25 µM | < 0.5 µM | > 10 µM | Cc1csc([C@H]2CCCN2C(=O)c2cc(CF)cc(C(=O)N[C@@H](Cc3ccccc3)[C@H](O)[C@H]3C[C@@H](OCc4ccccc4)CN3)c2)n1 [1-36, N-((1R,2S)-1-((2R,4R)-4-(benzyloxy)pyrrolidin-2-yl)-1-hydroxy-3-phenylpropan-2-yl)-3-(fluoromethyl)-5-((R)-2-(4-methylthiazol-2-yl)pyrrolidine-1-carbonyl)benzamide]
< 0.25 µM | > 1 µM | – | Cc1csc([C@H]2CCCN2C(=O)c2cc(C(=O)N[C@@H](Cc3ccccc3)[C@H](O)[C@H]3CCCN3)cc(C3CC3)c2)n1 [1-50, 3-cyclopropyl-N-((1R,2S)-1-hydroxy-3-phenyl-1-((R)-pyrrolidin-2-yl)propan-2-yl)-5-((R)-2-(4-methylthiazol-2-yl)pyrrolidine-1-carbonyl)benzamide]
< 0.25 µM | < 0.5 µM | 1 to 5 µM | Cc1csc([C@H]2CCCN2C(=O)c2cc(C(=O)N[C@@H](Cc3ccccc3)[C@H](O)[C@H]3C[C@@H](OCc4ccccc4)CN3)cc(-c3ncco3)c2)n1 [1-52, N-((1R,2S)-1-((2R,4R)-4-(benzyloxy)pyrrolidin-2-yl)-1-hydroxy-3-phenylpropan-2-yl)-3-((R)-2-(4-methylthiazol-2-yl)pyrrolidine-1-carbonyl)-5-(oxazol-2-yl)benzamide]
